This is an account of results in PMC12921516 (ACS Bio & Med Chem Au, 2025).

One series addresses T1, hPTP1B1–285 (Homo sapiens, UniProt P18031).
T1 construct: h PTP1B 1–285 IC 50 (μM ± S.D); made in house
T1 sequence (P18031 1-285): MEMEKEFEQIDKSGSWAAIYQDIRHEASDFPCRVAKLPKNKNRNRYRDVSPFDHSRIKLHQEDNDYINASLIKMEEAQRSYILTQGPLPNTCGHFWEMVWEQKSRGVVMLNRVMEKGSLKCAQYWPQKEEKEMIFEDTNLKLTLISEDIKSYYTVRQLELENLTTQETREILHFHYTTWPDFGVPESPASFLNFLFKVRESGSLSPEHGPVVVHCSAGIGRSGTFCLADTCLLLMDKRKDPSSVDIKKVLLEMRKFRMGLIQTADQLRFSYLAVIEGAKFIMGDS
As to the kind of experiment: PTP1B inhibition, pNPP hydrolysis, short form. It counts as biochemical. Conditions: pNPP substrate; ± S.D. As to the method:
In contrast to analogous regions in other PTP family proteins, the intrinsically disordered C-terminal domain of PTP1B (residues 301–400) contains two α-helices, α8′ (residues 320–327) and α9′ (residues 360–377), which may act as binding sites for various compounds.
Aliquots of 0–10 μL of the test compounds (triplicate) were taken and incubated for 15 min at 37 °C with 85 μL of Tris buffer solution (50 mM, pH 6.8) containing PTP1B enzyme and 5 μL of p-nitrophenyl phosphate substrate (pNPP, 10 mM). The absorbance of the hydrolysis product, p-nitrophenol (pNP), was measured at 405 nm using a 96-microplate absorbance reader (Accuris SmartReader 96). The inhibitory activity was determined according to eq . %enzyme=(A405b/A405c)×100 1 Where: % enzyme is the percentage of inhibition for PTP1B or TCPTP
The IC50 was calculated using regression analysis, eq : %inhibition=A100/1+(I/IC50)^s 2 Where: A100: Maximum inhibition

Series [1] can be described thus: Cytotoxicity, Sulforhodamine B assay. It is filed as cell-based, human. The settings on record: human, HFF-1 normal foreskin fibroblast cells; HFF-1 proliferation, 48-h incubation, 0.78 μM to 100 μM. As to the method: Given the significance of a drug candidate’s toxicity in relation to its inhibition potential, a cytotoxicity assay was conducted using Normal Human Foreskin Fibroblasts (HFF-1).
All assays were carried out in triplicate. Cell proliferation was determined by the Sulforhodamine B assay, and the half-maximal cytotoxic concentration (CC50) was determined by Probit analysis.

A further series deals with HepG2 cells. Nature of the series: Cell viability of HepG2 with crystal violet. It counts as cell-based, human. The settings on record: 1, 10, and 30 µM for 24, 48 and 72 h. On the procedure:
A 96-well plate was seeded with 3,000 HepG2 cells per well and incubated for 72 h. Subsequently, the cells were treated with test compounds at various concentrations for 24, 48, and 72 h. After incubation, the medium was removed, and 100 μL of 1% glutaraldehyde was added for 15 min. The glutaraldehyde was then removed, and 50 μL of 0.5% crystal violet (dissolved in 25% methanol) was added for 30 min. The crystal violet staining solution was subsequently removed, and the plate was thoroughly rinsed with tap water. The precipitate was dissolved in a 10% acetic acid solution, mixed for 15 min, and the absorbance was measured at 590 nm using a plate reader (xMark Microplate Spectrophotometer, Bio-Rad).
Figure S48. Cell viability assessment by crystal violet staining. HepG2 cell viability was evaluated after treatment with the respective compounds at concentrations of 1 , 10, and 30 µM for 24 , 48 and 72 hours. Bar graphs represent mean ± SEM. No significant differences were detected using ANOVA. […]

A further series relates to normoglycemic CD1 mice. Nature of the series: Oral glucose tolerance test (OGTT). It counts as in vivo. Conditions: single intragastric dose 50 mg/kg, glucose 2 g/kg. As to the method: The studies were carried out on compounds 4b, 4g, and 5g using both normoglycemic CD1 mice and a mouse model of noninsulin-dependent diabetes mellitus (NIDDM). An oral glucose tolerance test (OGTT) was conducted on the normoglycemic mice to evaluate the hypoglycemic activity of the compounds, while an insulin tolerance test (ITT) was performed on hyperglycemic CD1 mice to assess the compounds’ capacity to enhance insulin sensitivity in streptozotocin-induced diabetic mice. Pioglitazone and GA were included as positive controls.
Healthy six-week-old male CD-1 mice, weighing between 30 and 40 g, were maintained at a temperature of 25 ± 2 °C, under a 12-h light/dark cycle and 45–65% humidity throughout the experimental period. The mice were provided with a rodent pelleted diet (Harlan Laboratories, Indianapolis, USA) and had access to water ad libitum. Sixteen hours before the experiment, all mice were fasted but still had free access to water. All animal procedures were conducted in accordance with the Mexican Federal Regulations for Animal Experimentation and Care (SAGARPA, NOM-062-ZOO-1999, Mexico) and received approval from the Institutional Animal Care and Use Committee, following guidelines outlined in the US National Institutes of Health publication (No. 85–23, revised 1985).
Animals were categorized into five groups, each consisting of four mice (n = 4). The experimental groups received an oral suspension of compounds 4b, 4g, and 5g, prepared in a 10% Tween 20/water solution, at a dosage of 50 mg/kg body weight. A control group was treated with only the 10% Tween 20 solution. The final group was administered pioglitazone at a dose of 45 mg/kg, which is recognized as a reference drug for insulin sensitization. To evaluate glucose levels, blood samples were collected from the tails of the mice at 0, 30, 60, 90, and 120 min after the administration of the vehicle, test compound, or drug. Blood glucose concentration was measured using a commercial glucometer (Accu-Chek, Performa; Roche) and the enzymatic glucose dehydrogenase method. The percentage variation in glycemia was calculated by comparing the selected postadministration glycemia (G x ) with the initial value (G0) using the following formula: %variationofglycemia=[(Gx−G0)/G0]×100 where G0 represents the initial glycemia values and Gx indicates the glycemia values at +30, + 60, + 90, and +120 min, respectively.
To determine the hypoglycemic effect of the compounds on nondiabetic animals, the compounds 4b, 4g, and 5g were administered intragastrically. Pioglitazone was used as a positive control. After 30 min, five mice/group (CD-1) were subjected to OGTT. The test was performed using glucose (2 g/kg) as substrate.

Entries after “also recorded” stand apart in the source; their conditions may differ.

As to `CC1(C)c2[nH]c3ccc(S(N)(=O)=O)cc3c2C[C@]2(C)[C@H]3C(=O)C=C4[C@@H]5C[C@@](C)(C(=O)O)CC[C@]5(C)CC[C@@]4(C)[C@]3(C)CC[C@@H]12` [compound 4g, (20β)-5′-Sulfamoyl-11-oxo-1′H-oleana-2,12-dieno[3,2-b]indol-29-oic Acid], the IC50 against hPTP1B1–285 was 9.11 ± 0.58 µM. For the same compound, in series [1], the CC50 at 48 h is greater than 100 µM. In addition, in the series on HepG2 cells, the HepG2 cell viability entry is recorded as “No significant differences”. Besides, in the series with normoglycemic CD1 mice, the “hypoglycemic effect in OGTT” value is recorded as “did not cause hypoglycemia”.
On hPTP1B1–285, `CC1(C)c2c(cnn2-c2ccc(S(N)(=O)=O)cc2)C[C@]2(C)[C@H]3C(=O)C=C4[C@@H]5C[C@@](C)(C(=O)O)CC[C@]5(C)CC[C@@]4(C)[C@]3(C)CC[C@@H]12` [compound 5g, (20β)-11-Oxo-2′-(4-sulfamoylphenyl)-2′H-oleana-2,12-dieno[3,2-c]pyrazol-29-oic Acid] had an IC50 of 5.51 ± 0.16 µM. In series [1], this compound came in with a half-maximal cytotoxic concentration (CC50) at 48 h greater than 100 µM. Also, the HepG2 cell viability entry in the series with HepG2 cells is given as “No significant differences; also recorded: did not compromise HepG2 cell viability”. Further, the “hypoglycemic effect in OGTT” value in the series with normoglycemic CD1 mice is listed as “did not cause hypoglycemia”.
Compound `CC1(C)c2[nH]c3ccc(OC(F)F)cc3c2C[C@]2(C)[C@H]3C(=O)C=C4[C@@H]5C[C@@](C)(C(=O)O)CC[C@]5(C)CC[C@@]4(C)[C@]3(C)CC[C@@H]12` [compound 4b, (20β)-5′-(Difluoromethoxy)-11-oxo-1′H-oleana-2,12-dieno[3,2-b]indol-29-oic Acid] displayed an IC50 at hPTP1B1–285 of 7.03 ± 0.28 µM. The CC50 at 48 h in series [1] was found to be 98.7 ± 2 µM. For the same compound, the HepG2 cell viability result with HepG2 cells was “No significant differences; also recorded: did not compromise HepG2 cell viability”. Besides, the “hypoglycemic effect in OGTT” value with normoglycemic CD1 mice is on record as “did not cause hypoglycemia”.
